Results taken from PubChem BioAssay (NCI).
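Briefly, cells in 96-well plates were exposed to five compound concentrations for 48 h, and endpoints were estimated by linear interpolation. TGI: total growth inhibition.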 *1 amine or outer side, *2 acyl side, *3 side chain or, on linkers, in order; H or OH if unused. Where a SMILES comes first, the peptide text is derived from it. Bridges are numbered along the chain shown (N, C = ends). [ ]: non-standard residue; d: D form. The star is where a group is joined. X38 = CC[C@H](C)[C@@H](N[*:1])[C@@H](O)CC(=O)[*:2]; NMeY = CN[C@@H](Cc1ccc(O)cc1)C(=O)O; dNMeL = CN[C@H](CC(C)C)C(=O)O; Hiv = CC(C)[C@H](O)C(=O)O; Pyruvoyl = CC(=O)C(=O)*

What was measured:
Assay in all cases: growth of human tumour cells (NCI), 48 h
[1] = system: OVCAR-3 ovarian
[2] = system: M14 melanoma
[3] = system: 786-0 renal
[4] = system: HL-60(TB) leukemia
[5] = system: SR leukemia
[6] = system: EKVX NSCLC
[7] = system: SK-OV-3 ovarian
[8] = system: LOX IMVI melanoma
[9] = system: T-47D breast
[10] = system: OVCAR-4 ovarian

Compound	TGI [1] [µM]	TGI [2] [µM]	TGI [3] [µM]	TGI [4] [µM]	TGI [5] [µM]	TGI [6] [µM]	TGI [7] [µM]	TGI [8] [µM]	TGI [9] [µM]	TGI [10] [µM]
CC[C@H](C)[C@H]1NC(=O)[C@@H](NC(=O)[C@@H](CC(C)C)N(C)C(=O)[C@@H]2CCCN2C(=O)C(C)=O)[C@@H](C)OC(=O)[C@H](Cc2ccc(OC)cc2)N(C)C(=O)[C@@H]2CCCN2C(=O)[C@H](CC(C)C)NC(=O)[C@H](C(C)C)OC(=O)C[C@@H]1O (Pyruvoyl-P[dNMeL]T[X38][Hiv]LP[NMeY](Me); ester 3-C)	0.0532	0.0261	0.0397	0.187	0.607	0.0103	0.294	0.0481	0.0113	0.351
CC1=NC(=O)C(C)(c2ccccc2)N1CCc1ccccc1 (stereo not given)	> 100	> 100	> 100	> 100	> 100	> 100	> 100	> 100	> 100	> 100
COc1ccc(Br)c2c1CC(C(=O)O)CC2 (stereo not given)	> 100	> 100	> 100	> 100	> 100	> 100	> 100	> 100	> 100	> 100
CCCCCC(=O)Nc1n[nH]nc1C(N)=O	> 100	> 100	> 100	> 100	> 100	> 100	> 100	> 100	> 100	> 100
COc1ccc(/C=C(\Cl)c2ccc(OC)c(OC)c2)cc1OC	> 100	> 100	> 100	> 100	> 100	> 100	> 100	> 100	> 100	> 100
c1csc(-c2cscc2-c2ccsc2)c1	56.1	> 100	> 100	> 93.8	> 95.9	> 100	> 100	> 100	> 100	> 100
O=C1NC(N2CCOCC2)=N/C1=C\c1cccs1	> 100	> 100	> 100	> 100	> 100	> 100	> 100	> 100	> 100	> 100
CCCCc1ccc(Nc2nc(Cl)c3c(ncn3COCCOC(C)=O)n2)cc1	43.8	34	36.9	49.9	47.3	37.1	42.9	34	34.6	66.6
